Entries after “also recorded” stand apart in the source; their conditions may differ.
Tests used:
[1] = test system: DrAMPCs; experiment: CyQuant proliferation assay after hormone treatment; format: cell-based, Drosophila melanogaster
Procedure: Drosophila melanogaster adult muscle progenitor-like cells (DrAMPCs) were acquired from Kerafast (Boston, Mass.) (#EF4006). The cell line was originally immortalized by the Persimmon Research Group at Harvard University, and was derived from primary embryo cultures in which Gal4 drives Ras^V12 and GFP expression. DrAMPCs were cultured in insect growth media composed of Schneider's Insect Medium from Sigma-Aldrich (St. Louis, Mo.) (#S0146) supplemented with 10% heat inactivated fetal bovine serum from ThermoFisher (Waltham, Mass.) (#16140) and 1% penicillin/streptomycin (ThermoFisher, #15140122). For serum-free growth media experiments, media consisted of Ex-Cell 405 Serum-Free Medium (Sigma-Aldrich, #14405C) and 1% penicillin/streptomycin. For static culture, DrAMPCs were cultured in either plasma-treated flasks (ThermoFisher, #156499) or ultra-low attachment flasks (Corning, N.Y.) (#CLS3814) and incubated at 19° C. in a temperature-controlled incubator from VWR (Radnor, Pa.) (#89511-416). For suspension culture, DrAMPCs were cultured in shaker flasks (ThermoFisher, #4115-0250) on an orbital shaker set at 40 rpm at room temperature. When indicated, dextran sulfate (Sigma-Aldrich, #67578) was supplemented to serum-free media by dissolution and sterile filtration with 0.2 μm bottle top filters (ThermoFisher, #595-3320). For hormone treatment and differentiation experiments, DrAMPCs were cultured in insect growth media or serum-free media supplemented with methoprene (Sigma-Aldrich, #33375) and/or 20-hydroxyecdysone (Sigma-Aldrich, #H5142) which were dissolved in DMSO (Sigma-Aldrich, #D8418). DrAMPCs were seeded at 75,000 or 300,000 cells/cm^2 in 2D culture and 1,000,000 cells/sponge in 3D culture. […]
Cell adhesion to tissue culture plastic and chitosan films was quantified via a MTS Assay from Promega (Madison, Wis.) (#G3582) by measuring absorbance after 2.5-hour incubation with the MTS reagent. Cell proliferation and viability were measured by fluorescence, Live/Dead kit (ThermoFisher, #L3224) stained image analysis or CyQuant proliferation assays (ThermoFisher, #C7026). For fluorescence measurements, GFP-expressing DrAMPCs were imaged on a fluorescence microscope over the course of a week using the automated multi-point capture feature. Fluorescence was quantified on Fiji software and normalized to the values determined at the first time-point. For Live/Dead stained image analysis, cells were stained following the kit protocols and imaged on a fluorescence microscope. The images were analyzed with Fiji to quantify the viability and total cell population over time. […] Microplate measurements were performed on a SpectraMax M2 reader from Molecular Devices (San Jose, Calif.). Cell populations were determined from a standard curve.

[2] = test system: DrAMPCs; experiment: Cell elongation and differentiation after hormone treatment (image analysis, immunostaining); format: cell-based, Drosophila melanogaster
Procedure: Drosophila melanogaster adult muscle progenitor-like cells (DrAMPCs) were acquired from Kerafast (Boston, Mass.) (#EF4006). The cell line was originally immortalized by the Persimmon Research Group at Harvard University, and was derived from primary embryo cultures in which Gal4 drives Ras^V12 and GFP expression. DrAMPCs were cultured in insect growth media composed of Schneider's Insect Medium from Sigma-Aldrich (St. Louis, Mo.) (#S0146) supplemented with 10% heat inactivated fetal bovine serum from ThermoFisher (Waltham, Mass.) (#16140) and 1% penicillin/streptomycin (ThermoFisher, #15140122). For serum-free growth media experiments, media consisted of Ex-Cell 405 Serum-Free Medium (Sigma-Aldrich, #14405C) and 1% penicillin/streptomycin. For static culture, DrAMPCs were cultured in either plasma-treated flasks (ThermoFisher, #156499) or ultra-low attachment flasks (Corning, N.Y.) (#CLS3814) and incubated at 19° C. in a temperature-controlled incubator from VWR (Radnor, Pa.) (#89511-416). For suspension culture, DrAMPCs were cultured in shaker flasks (ThermoFisher, #4115-0250) on an orbital shaker set at 40 rpm at room temperature. When indicated, dextran sulfate (Sigma-Aldrich, #67578) was supplemented to serum-free media by dissolution and sterile filtration with 0.2 μm bottle top filters (ThermoFisher, #595-3320). For hormone treatment and differentiation experiments, DrAMPCs were cultured in insect growth media or serum-free media supplemented with methoprene (Sigma-Aldrich, #33375) and/or 20-hydroxyecdysone (Sigma-Aldrich, #H5142) which were dissolved in DMSO (Sigma-Aldrich, #D8418). DrAMPCs were seeded at 75,000 or 300,000 cells/cm^2 in 2D culture and 1,000,000 cells/sponge in 3D culture. For mammalian controls, C2C12 cells from ATTC (Manassas, Va.) (#CRL-1772) were cultured in growth media composed of DMEM+Glutamax (ThermoFisher, #10566) supplemented with 10% heat inactivated fetal bovine serum and 1% penicillin/streptomycin. C2C12s were seeded at 10,000 cells/cm^2.
Cell viability was determined by a Live/Dead staining kit (ThermoFisher, #L3224). At time of assay, media was gently aspirated from the cell surface and cells were rinsed with phosphate buffered saline (PBS) (ThermoFisher, #14040133). Cells were stained with 2 μM calcein AM and 4 μM EthD-1 solution for 30 minutes at room temperature in the dark and imaged with a fluorescence microscope. For immunocytochemical staining, media was gently aspirated from cells and the cell surface was rinsed with PBS. Cells were fixed with 4% paraformaldehyde from Fisher Scientific (Hampton, N.H.) (#J61899AK) for 10 minutes and rinsed with PBS. Cells were then permeabilized with 0.5% Triton X-100 and rinsed with blocking buffer consisting of phosphate buffered saline, 5% fetal bovine serum and 0.05% sodium azide. Cells were incubated in blocking buffer for 15 minutes before addition of primary antibody, then incubated at 4° C. overnight. Cells were rinsed and incubated with fresh blocking buffer for 15 minutes before addition of secondary antibody, then incubated in the dark on ice for 1 hour. Again, cells were rinsed and incubated with fresh blocking buffer for 15 minutes before counterstaining and mounting with DAPI mounting medium from Abcam (Cambridge, UK) (#ab104139). Detailed antibody information is available in Table 5. Fluorescence imaging was performed on a Keyence microscope (Osaka, Japan) (#BZ-X700). Confocal imaging was performed on a TCS SP8 microscope from Leica Microsystems (Wetzlar, Germany).

[3] = average adult; cited from earlier work
[4] = test system: DrAMPCs; experiment: Adhesion and differentiation on chitosan sponge scaffolds; format: cell-based, Drosophila melanogaster
Procedure: Mushroom chitosan of 100 kDa molecular weight from Chinova Bioworks (New Brunswick, Canada) was dissolved in 2% acetic acid in distilled water for 12 hours at room temperature on a stir plate. The chitosan solution was centrifuged at 16,880×g for 3 hours to remove undissolved particles and diluted in distilled water to the desired concentrations (1%, 2% and 4%). Concentrations were verified by drying small volumes at 60° C. for 2 hours and calculating dry weight/wet weight. To prepare films, the solution was cast on plastic and allowed to dry overnight. To prepare sponges, the solution was poured into PDMS molds with an aluminum sheet separating one side of the mold from a separate chamber. Liquid nitrogen was poured into the chamber opposite the chitosan solution and continually replenished until the entire solution had frozen across the temperature gradient. Samples were then lyophilized for 48 hours. Prior to sterilization and seeding, films and sponges were submerged in 1M sodium carbonate for 1 hour at room temperature and subsequently rinsed three times in distilled water for 20 minutes and soaked in distilled water overnight. For hydrated mechanical analysis, sectioned sponges were soaked in PBS prior to testing.
Sponges used for seeding were cylinders 6 mm in diameter and 1.5 mm thick. […]

[5] = test system: Manduca sexta embryonic precursor cell (Ms-EPCs); experiment: Ms-EPC culture and differentiation; format: cell-based
[6] = test system: DrAMPCs; experiment: Potassium induced contraction; format: cell-based, Drosophila melanogaster
Procedure: Cells were differentiated for 5 days before the experiment. High K+ concentration media was produced by dissolving KCl in growth media at the indicated concentration. Cells were imaged on a Phase Contrast microscope before growth media was aspirated and replaced with 600 mM K+ media. Cells were imaged over a duration of 15 minutes.

[7] = test system: DrAMPCs; experiment: Surface coatings: myosin heavy chain expression and cell attachment (image fluorescence quantification); format: cell-based, Drosophila melanogaster; details: cultures on coated surface
[8] = test system: DrAMPCs; experiment: Agitated suspension culture in shaker flasks (aggregation); format: cell-based, Drosophila melanogaster; details: 100 μg/mL dextran sulfate in EC405, shaker flasks
Procedure: It was noted that when static culture flasks became over-confluent, the cells continued to grow in three-dimensional aggregates or in suspension. […] The cells were then transitioned from static suspension culture to agitated suspension culture with the use of shaker flasks incubated at room temperature. In agitated suspension, the cells formed aggregates (FIG. 1G). […] After expansion in suspension culture and removal of dextran sulfate, the cells transitioned back to adherent monolayers and retained a myoblast-like morphology.
Drosophila melanogaster adult muscle progenitor-like cells (DrAMPCs) were acquired from Kerafast (Boston, Mass.) (#EF4006). The cell line was originally immortalized by the Persimmon Research Group at Harvard University, and was derived from primary embryo cultures in which Gal4 drives Ras^V12 and GFP expression. DrAMPCs were cultured in insect growth media composed of Schneider's Insect Medium from Sigma-Aldrich (St. Louis, Mo.) (#S0146) supplemented with 10% heat inactivated fetal bovine serum from ThermoFisher (Waltham, Mass.) (#16140) and 1% penicillin/streptomycin (ThermoFisher, #15140122). For serum-free growth media experiments, media consisted of Ex-Cell 405 Serum-Free Medium (Sigma-Aldrich, #14405C) and 1% penicillin/streptomycin. […]

[9] = test system: DrAMPCs; experiment: Adhesion and growth on mushroom chitosan films (MTS assay, fluorescence microscopy); format: cell-based, Drosophila melanogaster; details: 0.1% gelatin solution coating
Procedure: Cell adhesion to tissue culture plastic and chitosan films was quantified via a MTS Assay from Promega (Madison, Wis.) (#G3582) by measuring absorbance after 2.5-hour incubation with the MTS reagent. Cell proliferation and viability were measured by fluorescence, Live/Dead kit (ThermoFisher, #L3224) stained image analysis or CyQuant proliferation assays (ThermoFisher, #C7026). For fluorescence measurements, GFP-expressing DrAMPCs were imaged on a fluorescence microscope over the course of a week using the automated multi-point capture feature. Fluorescence was quantified on Fiji software and normalized to the values determined at the first time-point. For Live/Dead stained image analysis, cells were stained following the kit protocols and imaged on a fluorescence microscope. The images were analyzed with Fiji to quantify the viability and total cell population over time. For CyQuant proliferation assays, cells were plated in 96-well plates for each time-point. At each time-point, media was blotted from the plates and plates were stored at −80° C. After all time-points were collected, plates were thawed to room temperature and stained with CyQuant working solution for 5 minutes. Microplate measurements were performed on a SpectraMax M2 reader from Molecular Devices (San Jose, Calif.). Cell populations were determined from a standard curve. […]

[10] = both serum-supplemented and serum-free cultures

COC(C)(C)CCC[C@H](C)C/C=C/C(C)=C/C(=O)OC(C)C (racemic) [methoprene]
comparison of treatment levels on proliferation ([1]; 500 ng/mL vs 1,000 ng/mL): the 500 ng/mL treatment level had a larger effect than the 1,000 ng/mL treatment | proliferation versus control groups ([1]; 500 or 1,000 ng/mL, day 1 and 5): higher proliferation than control groups | proliferation [1, 10]: increased proliferation | average cell length less than control cells ([2]; 500 ng/mL): 8 μm | cell elongation (preliminary sign of differentiation) ([2]; JH treatment): inhibited cell elongation | recommended exposure [3]: 0.3750 mg/day

CC(C)(O)CC[C@@H](O)[C@](C)(O)[C@H]1CC[C@@]2(O)C3=CC(=O)[C@@H]4C[C@@H](O)[C@@H](O)C[C@]4(C)[C@H]3CC[C@]12C [20-hydroxyecdysone]
growth rates versus control groups ([1]; 0, 500 or 1000 ng/mL 20-HE): did not significantly differ from control groups | concentration able to trigger cell elongation ([2]; as low as): 40 ng/mL | differentiation [2, 10]: triggered differentiation | differentiation of EC405 adapted cells ([2]; small fraction of cells, 1 μg/mL 20-HE for 5 days): differentiate and form long, multinucleated myotubes that express myosin heavy chain | generation of myosin heavy chain-expressing cells ([4]; on plastic and chitosan scaffolds): myosin heavy chain-expressing cells could be generated (albeit at low efficiency) | fraction of cells on chitosan scaffolds differentiated ([4]; treated with 20-hydroxyecdysone): < 1% | differentiation of primary Ms-EPC cells ([5]; differentiated with 20-hydroxyecdysone): multinucleated, striated and express myosin heavy chain

[Cl-].[K+] [K^+, KCl]
cell viability after potassium treatment [6]: 95% | cell contraction ([6]; 300 mM K+): did not contract | cell contraction ([6]; 600 mM K+): did contract | cell fractional shortening, myoblasts (elongated cells) ([6]; 600 mM K+, image analysis, n=12): 31.6%±14.8% | cell fractional shortening, spherical proliferative precursor cells ([6]; 600 mM K+, image analysis, n=14): 1.6%±16.2%

Concanavalin A
cell attachment [7]: do not increase cell attachment | expression of myosin heavy chain in differentiated DrAMPCs [7]: may increase

dextran sulfate
cell aggregation in agitated suspension [8]: sufficient to reduce aggregation and promote a single cell suspension | cell aggregation in agitated suspension ([8]; listed as Dextran sulfate): sufficient to reduce cell aggregation

gelatin
cell adhesion and growth on gelatin-coated chitosan films [9]: did not increase cell adhesion to chitosan films; also recorded: grow in aggregates and were detached from the center of the well during the PBS rinse | cell adhesion to gelatin coated tissue culture plastic [9]: improve cell adhesion

laminin
cell attachment [7]: do not increase cell attachment | expression of myosin heavy chain in differentiated DrAMPCs [7]: may increase

poly-lysine
cell morphology of Ms-EPCs ([5]; poly-lysine coated plastic): more cell elongation, perhaps differentiation
